For one data set, the system named is photoreceptors. Briefly: Paraquat-induced photoreceptor apoptosis in vitro. Type of data set: cell-based, Wistar albino rats. Here is the method: Tyramide signal amplification (TSA)-FISH PerkinElmer, Boston, Mass., USA.); secondary antibodies, monoclonal antibodies to-Bax (sc-7480), Bcl-2 (sc-7382), rodopsine RET-P1 (sc-57433) (Santa Cruz Biotechnology, Inc.—USA), PhA, Docosahexaenoic acid, Paraquat Dichloride, (Sigma-Alldrich). Solvents and reactors had HPLC and analytic grade.
Purified cultures of neurons from Wistar albino rats were prepared according to Politi et al., (1966) and treated in a poli-ornithine medium as in Adler-R (1982). On the first day of culture, equal concentrations of DHA (9 mM) were added to neuron cultures, with 7 different concentrations of PhA ([…]), usually found in marine origin oils rich in DHA, and 2 controls without DHA, with or without Paraquat. On the third day of culture, Paraquat was added, incubating it for 24 h before fixing it for an hour with paraformaldehyde in a phosphate buffered saline (0.9% NaCl in 0.01 M NaH2PO4 [pH 7.4], following 15 minutes with Triton X-100 (0.1%). In the apoptosis, the expression of Bax and Bcl-2 was determined and quantified according to the method Rotstein-N P et al. (2003). For the cytochemical studies, 10 fields/samples were randomly quantified, where results represent the of 3 samples/plate mean for each concentration of DHA with PhA.

The next data set concerns retinas from rats. Briefly: MNU-induced retinal apoptosis in vivo. Here is the method:
The same materials and immunohystochemical and quantification methods as in Experiment A were used. Instead of using Paraquat for inducing apoptosis, N-Nitroso-N-methylurea (MNU) (Sigma-Alldrich) was used. Instead of analysing cultures in vitro, as in Experiment A, retins from sacrificed Wistar albino rats were analysed. For that purpose, 8 rats S-D with 42 days of age were selected and fed for 4 weeks with a standard basal diet. Each animal was fed in a different way: one rat was on a standard on control diet, while for the other 7 rats this diet was modified with DHA at 15%, having different concentrations of PhA as in Experiment A: 0/4/20/100/500/2500/12500 μgPhA/g of oil. After these 4 weeks, they were injected a single intraperitoneal injection of MNU (75 mg/kg body weight). All rats were on the same diet for 6 days, being sacrificed at the 7th day, after having fast for 24 hours, when the extraction of retinas was carried out, following the fixation and immunohystochemical processes as in Experiment A. For the cytochemical studies, 10 fields/samples were randomly quantified, where results represent the 10 eye/sample mean.

The subject of data set [1] is leukotrienes, prostaglandin E2, prostaglandin F2. The conditions noted are these: cited from earlier work.
The conditions of data set [2]: toxic at doses as low as; cited from earlier work.
Where [3] appears, read: DHA oils <5 μg/g of PhA compared with larger concentrations.

Take `CC/C=C\C/C=C\C/C=C\C/C=C\C/C=C\C/C=C\CCC(=O)O` [DHA]: in the data set on photoreceptors (DHA 9 mM with 0 and 4 μg/g of PhA, compared with ≧20 and ≧100 μg/g), the “anti-apoptotic activity in photoreceptors” value is on record as “notably higher”. For the same molecule, in the data set with photoreceptors (setting [3]), the “inhibitory activity of apoptosis (FIG. 1)” value is given as “greater inhibitory activity of apoptosis” and the “oxidative stress produced (FIG. 1)” value was “less”. Further, the “anti-apoptotic activity in photoreceptors” value in the data set with photoreceptors (DHA with ≧20 μg/g and ≧100 μg/g of PhA) was “significantly reduced”. Also, the “activity to inhibit apoptosis of photoreceptors” value with photoreceptors (PhA concentration 2500 μg/g) is “neutralised”. Besides, the apoptosis of photoreceptors result in the data set with photoreceptors (PhA concentrations higher than 2500 μg/g) is recorded as “apoptosis of photoreceptors is induced”. The “oxidative stress (Bcl-2/Bax index)” value in the data set on photoreceptors (PhA ≦20 μg/g compared with ≧100 μg/g) is on record as “significantly less oxidative stress”. For the same molecule, the “ratio Bcl-2/Bax” value in the data set with retinas from rats (20 μg/g of PhA versus rats fed with <5 μg/g) was “significantly lower”. Further, in the data set with retinas from rats (PhA up to 12500 μgPhA/g of oil), the “neutralisation of the inhibitor effect of the apoptosis” value was “no neutralisation”. Besides, the “anti-apoptotic activity in photoreceptors” value with retinas from rats (diet with DHA at 15%, PhA between 0 and 20 μg/g, MNU 75 mg/kg i.p.) was “greater anti-apoptotic activity”. In addition, in the data set with retinas from rats (oral consumption of DHA <5 μg/g of PhA), the “physiological activity as an inhibitor of apoptosis (FIG. 2)” value is “greater physiological activity”. For the same molecule, in the data set with retinas from rats (rats fed with DHA <5 μg/g), the “anti-apoptotic activity and markers Bax and Bcl-2 with regards to DHA without PhA added” value is reported as “do not reveal alterations”. In data set [1], the “inhibition of the synthesis of leukotrienes” value was 76%, the “reduction of prostaglandin E2” value is reported as 40% and the “reduction of prostaglandin F2” value was 81%.

For `CC(C)CCCC(C)CCCC(C)CCCC(C)CC(=O)O` (stereo not shown) [PhA, phytanic acid], the toxic dose in data set [2] is 0.1 μmol/mg fat.

The values above are taken from patent publication US9062275B2, “Compositions rich in omega-3 fatty acids with a low content in phytanic acid” (NATAC PHARMA, S.L., priority 2009, dated 2015).
